Earlier results in patent US20040131543A1, “Radiopharmaceuticals and radioactive microspheres for locoregional ablation of abnormal tissues” (priority 2002, published 2004).

Conditions: single intratracheal instillation, rats

- Half-life of Gd deposited in lung tissue: extremely long half-life
SMILES: [Cl][Gd]([Cl])[Cl] [GdCl3, Gd chloride]
